{
  "source": "paper PMC2691587",
  "about": "(Journal of medicinal chemistry, 2009)",
  "key": {"[1]": {"molecular_target": "T1, human recombinant SIRT1 (Homo sapiens, UniProt Q96EB6)", "T1 sequence (Q96EB6 1-747)": "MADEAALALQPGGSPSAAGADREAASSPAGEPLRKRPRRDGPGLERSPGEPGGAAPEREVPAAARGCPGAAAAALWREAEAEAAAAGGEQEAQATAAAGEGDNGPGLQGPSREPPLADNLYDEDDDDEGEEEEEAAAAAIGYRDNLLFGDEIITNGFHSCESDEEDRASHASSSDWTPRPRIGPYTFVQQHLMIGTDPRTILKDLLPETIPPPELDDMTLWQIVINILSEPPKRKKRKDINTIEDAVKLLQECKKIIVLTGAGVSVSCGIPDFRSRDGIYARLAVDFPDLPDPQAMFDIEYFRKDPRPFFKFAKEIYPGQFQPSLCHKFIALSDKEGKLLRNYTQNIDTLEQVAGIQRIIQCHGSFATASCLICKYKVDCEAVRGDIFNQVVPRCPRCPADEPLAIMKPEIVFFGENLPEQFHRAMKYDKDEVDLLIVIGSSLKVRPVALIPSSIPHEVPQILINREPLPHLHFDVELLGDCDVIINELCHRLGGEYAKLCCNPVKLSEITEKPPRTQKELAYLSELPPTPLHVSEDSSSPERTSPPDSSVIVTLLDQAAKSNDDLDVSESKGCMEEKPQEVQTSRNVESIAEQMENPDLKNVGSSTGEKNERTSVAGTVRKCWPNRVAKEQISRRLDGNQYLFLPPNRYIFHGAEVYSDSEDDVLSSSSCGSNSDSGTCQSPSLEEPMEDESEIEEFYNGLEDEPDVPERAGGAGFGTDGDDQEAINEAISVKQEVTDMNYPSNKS", "experiment": "SIRT1 inhibition, Fluor de Lys fluorescence-based assay", "assay_type": "biochemical", "settings": "ratio of IC50 values versus 1"}, "[2]": {"system": "MCF-7 breast adenocarcinoma cells", "experiment": "Western blot of p53 and K382-acetylated p53 levels in MCF-7 cells", "assay_type": "cell-based, human"}, "[3]": {"system": "H1299 cells", "experiment": "Western blot of K40-acetylated α-tubulin levels in H1299 cells", "assay_type": "cell-based, human"}, "[4]": {"system": "SIRT1", "settings": "read-out: SIRT1 IC50 (previously reported); in vitro; cited from earlier work"}, "[5]": {"system": "SIRT2", "settings": "read-out: SIRT2 IC50 (previously reported); in vitro; cited from earlier work"}, "[6]": {"system": "NCI H460 cancer cells", "settings": "in the presence of etoposide (10 μM); cited from earlier work"}},
  "data": [
    {"smiles": "O=c1[nH]c(=S)[nH]c(-c2ccc(Br)cc2)c1Cc1c(O)ccc2ccccc12", "note": "[6b, 6-(4′-Bromophenyl)-5-[2″-hydroxynaphthyl-(1″)-methyl]-2-thioxo-2,3-dihydro-1H-pyrimidin-4-one]", "values": [
      {"measurement": "improvement in activity (IC50) against SIRT1 compared to 1", "setting": "[1]", "value": 3, "unit": "fold"},
      {"measurement": "levels of p53", "setting": "[2]; MCF-7, compound alone, in the absence of etoposide, different concentrations", "value": "did not increase the levels of p53"},
      {"measurement": "levels of acetylated α-tubulin", "setting": "[3]; Figure S13, cell line not given", "value": "did not lead to an increase in the levels of acetylated α-tubulin"}
    ]},
    {"smiles": "CCCCn1c(-c2ccccc2)c(Cc2c(O)ccc3ccccc23)c(=O)[nH]c1=S", "note": "[6j, 6-Phenyl-5-[2″-hydroxynaphthalyl-(1″)-methyl]-1-butyl-2-thioxo-2,3-dihydro-1H-pyrimidin-4-one]", "values": [
      {"measurement": "levels of acetylated α-tubulin compared to the effect of 1", "setting": "[3]; H1299 cells, with trichostatin A, concentration range 10–50 μM", "value": "an increase in the levels of acetylated α-tubulin was achieved"},
      {"measurement": "toxicity in cells", "setting": "[3]; concentrations higher than 10–50 μM", "value": "toxicity"}
    ]},
    {"smiles": "O=c1[nH]c(=S)[nH]c(-c2ccccc2)c1Cc1c(O)ccc2ccccc12", "note": "[compound 1, 6-Phenyl-5-[2″-hydroxynaphthyl-(1″)-methyl]-2-thioxo-2,3-dihydro-1H-pyrimidin-4-one]", "values": [
      {"measurement": "levels of p53 and acetylated p53", "setting": "[2]; MCF-7, in the presence of etoposide (10 μM), 200 μM compound", "value": "decreased again"},
      {"measurement": "levels of p53 and Lys382 acetylated p53", "setting": "[2]; MCF-7, in the presence of etoposide (10 μM), 20 and 50 μM compound, 6 h", "value": "increased"},
      {"measurement": "levels of acetylated α-tubulin", "setting": "[3]; H1299 cells, with 40 nM trichostatin A, 24 h", "value": "did lead to an increase in levels of acetylated tubulin"},
      {"measurement": "IC50", "setting": "[4]", "value": 56, "unit": "µM"},
      {"measurement": "IC50", "setting": "[5]", "value": 59, "unit": "µM"},
      {"measurement": "levels of p53 and acetylated p53", "setting": "[6]", "value": "increased levels of p53 and acetylated p53"}
    ]}
  ]
}
